{
  "source": "patent US20250179167A1",
  "about": "“IL-6 INHIBITOR AS TREATMENT FOR NEPHROPATHY” (YALE UNIVERSITY, priority 2022, published 2025)",
  "key": {"diabetic CD-1 mice": {"system": "diabetic CD-1 mice", "assay": "FA modulators (fenofibrate, etomoxir, C75, simvastatin) in diabetic CD-1 mice", "assay_type": "in vivo, mouse", "details": "for CPT1a level / FAO, as measured by [14CO2] release / β-catenin level / fibrogenic phenotype / level of fibrosis / level of GR protein in CD31 positive cells: diabetic CD-1 mice; for fibrogenic phenotype / level of fibrosis / level of GR protein in CD31 positive cells: treated for 4 weeks; for fibronectin mRNA level / αSMA mRNA level: diabetic kidneys, CD-1 mice", "protocol": "FIG. 33A-33F show endothelial GR is essential for the action of anti-dyslipidemic drugs in the diabetic kidney disease. (FIG. 33A) Masson trichrome (MTS) and Sirius red staining in kidneys of control, diabetic, fenofibrate-, etomoxir-, C75- and simvastatin-treated diabetic mice. Representative images (original magnification 300×) are shown. Relative area of fibrosis (%) and relative collagen deposition (%) were measured using the ImageJ program. n=6 biologically independent mice/group combined from two experiments were analyzed. Scale bar 50 μm. (FIG. 33B) Co-immunolabeling of GR/CD31 was analyzed by fluorescence microscopy. FITC-labeled GR, rhodamine-labeled CD31 and DAPI were used. Representative images are shown; original magnification 300×. Scale bar 50 μm. n=6 biologically independent mice/group combined from two experiments were analyzed. (FIG. 33C) PCR gene analiof fibronectin and α-SMA in the kidneys. 18S was used as an internal control. n=6 biologically independent mice/group. (FIG. 33D) Blood glucose measurements in control, diabetic, fenofibrate-, etomoxir-, C75- and simvastatin-treated diabetic mice. n=6 biologically independent mice/group. (FIG. 33E) Radiolabeled [^14C]palmitate oxidation and [^14CO2]release were measured. CPM of each sample was counted. Endothelial cells isolated from six biologically independent mice were evaluated. Three independent experiments were analyzed. Data are mean±SEM (FIG. 33F) Immunohistochemical analysis of CPT1a and β-catenin was analyzed in the kidneys of control, diabetic, fenofibrate-, C75-, etomoxir- and simvastatin-treated diabetic mice. n=6 biologically independent mice/group. Representative images are shown; original magnification 400×. Scale bar 50 μm. Data are mean SEM. In all panels, one-way Anova with Tukey multiple comparison post hoc test was used to calculate statistical significance. Significance—*p<0.05, **p<0.01, ***p<0.001. Con: control, DM: diabetic, feno: fenofibrate.\nA single IP dose of 200 mg/kg STZ was used to induce diabetes in CD-1 mice.\nIn one experiment, male mice were randomized to one of 4 groups sixteen weeks after induction of diabetes: (i) untreated, (ii) fenofibrate (100 mg/kg), (iii) simvastatin (40 mg/kg), or (iv) Wnt inhibitor (LGK974; 5 mg/kg). In each case, mice were treated for 4 weeks and compared to untreated diabetic CD-1 mice. In another experiment, male diabetic CD-1 mice were randomized into one of 3 groups: (i) untreated (vehicle), (ii) etomoxir (20 mg/kg) or (iii) C75 (15 mg/kg); in each case mice were treated (IP) three times/week for a total 4 weeks.\nMorphological Evaluation. A point-counting method was utilized to evaluate the relative area of the mesangial matrix. The inventors analyzed PAS-stained glomeruli from each mouse using a digital microscope screen grid containing 540 (27×20) points. Masson's trichrome-stained images were evaluated by ImageJ software, and the fibrotic areas were estimated.\nSirius red staining. Deparaffinized sections were incubated with picrosirius red solution for 1 hour at room temperature. The slides were washed twice with acetic acid solution for 30 seconds per wash. The slides were then dehydrated in absolute alcohol three times, cleared in xylene, and mounted with a synthetic resin. Sirius red staining was analyzed using ImageJ software, and fibrotic areas were quantified.\nImmunohistochemistry. Paraffin-embedded kidney sections (5 μm thick) were deparaffinized and rehydrated (2 min in xylene, four times; 1 min in 100% ethanol, twice; 1 min in 95% ethanol; 45 s in 70% ethanol; and 1 min in distilled water), and the antigen was retrieved in a 10 mM citrate buffer pH 6 at 98° C. for 60 min. To block the endogenous peroxidase, all sections were incubated in 0.3% hydrogen peroxide for 10 min. The immunohistochemistry was performed using a Vectastain ABC Kit (Vector Laboratories, Burlingame, CA). Mouse anti-β-catenin antibody (1:100) and CPT1a (Abnova; H00001374-DO1P; 1:100) antibodies were used. […]"}, "[1]": {"system": "control littermates and GR^ECKO mice", "assay": "Etomoxir and C75 in non-diabetic and diabetic control littermates and GR^ECKO mice", "assay_type": "in vivo, mouse", "details": "for level of renal fibrosis: nondiabetic control and GR^ECKO mice", "protocol": "FIGS. 6A-6E show metabolic reprogramming by loss of endothelial GR loss worsens diabetic kidney disease. (FIG. 6A) Radiolabeled ^14C-palmitate uptake analysis in isolated endothelial cells from kidneys of nondiabetic and diabetic control, GR^ECKO Apoe^−/− and DKO mice. CPM of each sample were counted. Data were normalized to μg protein. Fold activity is presented. Endothelial cells isolated and cultured from six biologically independent mice/group were performed in triplicate and analyzed for ^14C-palmitate uptake analysis. Data are mean±SEM. (FIG. 6B) Radiolabeled [^14C]palmitate oxidation and [^14CO2]release were measured in isolated endothelial cells from kidneys of nondiabetic and diabetic control, GR^ECKO Apoe^−/− and DKO mice. CPM of each sample was counted. Data were normalized to μg protein. Fold activity is presented. Endothelial cells isolated and cultured from six biologically independent mice/group were performed in triplicate and analyzed for ^14C-palmitate uptake analysis. Data are mean±SEM. (FIG. 6C) Body weight, blood glucose, and kidney weight/body weight were measured at the end of these experiments. N=6 biologically independent mice from two experiments. Ex vivo radiolabeled [^14C]palmitate oxidation and [^14CO2]release were measured in kidneys. CPM of each sample was counted. Isolated endothelial cells from five biologically independent mice/group were analyzed in triplicate. Data are mean±SEM. (FIG. 6D) Masson trichrome, Sirius red and PAS staining were analyzed in the kidneys of control, etomoxir- and C75-treated diabetic mice. Representative images are shown; original magnification 300×. Relative area of fibrosis (%) and relative collagen deposition (%) were measured using the ImageJ program. N=8 biologically independent mice per/group from three independent experiments were analyzed. Scale bar 50 μm. Data are mean±SEM. (FIG. 6E) Immunohistochemical analysis of CPT1a and β-catenin. Representative images are shown; original magnification 300×. Scale bar 50 μm. N=6 biologically independent mice per group from three independent experiments. For all panels one-way ANOVA with Tukey post-test was used for analysis of statistical significance. Significance—*p<0.05, **p<0.01, ***p<0.001.\nBody weight, blood glucose, and kidney/body weight ratio and fatty acid oxidation as represented by [^14CO2]release are shown. [^14C]palmitate was used as substrate and CPM counts were normalized by protein. n=6 biologically independent mice/group. Data are mean±SEM. One-way Anova with Tukey multiple comparison post hoc test was used to calculate statistical significance. Significance—*p<0.05.\nMasson trichrome staining (upper panel) and Sirius red (lower panels) in etomoxir- and C75-treated non-diabetic control and GR^ECKO mice. Etomoxir (20 mg/kg) and C75 (15 mg/kg) were dosed (IP) three times per week for 3 weeks in GR^ECKO and control littermates. Representative images are shown; original magnification 400×. Area of fibrosis (%) and relative collage deposition (%) in n=6 biologically independent mice/group were combined from two independent experiments. Scale bar 50 μm. Data are mean±SEM. One-way Anova with Tukey multiple comparison post hoc test was used to calculate statistical significance. Significance-**p<0.01.\nAnimal Experimentation. All experiments were performed according to a protocol approved by the Institutional Animal Care and Use Committee at the Yale University School of Medicine and were in accordance with the National Institute of Health (NIH) Guidelines for the Care of Laboratory Animals Mice were housed at an ambient temperature of 68-79° F. with a humidity that ranged between 30%-70%. They were exposed to 12-h light-dark cycles Mice lacking the endothelial glucocorticoid receptor (GR) (known as GR^ECKO) and those lacking this receptor on the Apoe null background (DKO) were generated as previously described^25; these mice were on the C57BL/6 background. […]"}, "[2]": {"details": "kidney ECs from diabetic GR^ECKO mice"}, "[3]": {"details": "kidney ECs, non-diabetic control littermates"}, "[4]": {"details": "kidneys of diabetic GR^ECKO mice"}, "[5]": {"details": "kidneys of diabetic control mice"}},
  "data": [
    {"smiles": "CCOC(=O)[C@@]1(CCCCCCOc2ccc(Cl)cc2)CO1", "note": "[etomoxir]", "values": [
      {"measurement": "CPT1a level", "setting": "diabetic CD-1 mice", "value": "significant suppression"},
      {"measurement": "FAO, as measured by [14CO2] release", "setting": "diabetic CD-1 mice", "value": "significant suppression"},
      {"measurement": "β-catenin level", "setting": "diabetic CD-1 mice", "value": "induced the expression of β-catenin"},
      {"measurement": "fibrogenic phenotype / level of fibrosis", "setting": "diabetic CD-1 mice", "value": "exacerbated the fibrosis"},
      {"measurement": "level of GR protein in CD31 positive cells", "setting": "diabetic CD-1 mice", "value": "suppressed it"},
      {"measurement": "fibronectin mRNA level", "setting": "diabetic CD-1 mice", "value": "upregulated"},
      {"measurement": "αSMA mRNA level", "setting": "diabetic CD-1 mice", "value": "upregulated"},
      {"measurement": "expression of CPT1a (immunohistochemical analysis, FIG. 6E)", "setting": "[1]; diabetic GR^ECKO mice", "value": "A similar pattern was observed"},
      {"measurement": "expression of β-catenin (immunohistochemical analysis, FIG. 6E)", "setting": "[1]; diabetic GR^ECKO mice", "value": "A similar pattern was observed"},
      {"measurement": "expression of CPT1a (immunohistochemical analysis, FIG. 6E)", "setting": "[1]; diabetic control mice", "value": "decreased expression of CPT1a"},
      {"measurement": "expression of β-catenin (immunohistochemical analysis, FIG. 6E)", "setting": "[1]; diabetic control mice", "value": "increasing expression of β-catenin"},
      {"measurement": "FAO", "setting": "[1]; [2]", "value": "significant suppression of FAO"},
      {"measurement": "FAO", "setting": "[1]; [3]", "value": "significant suppression of FAO"},
      {"measurement": "CPT1a level", "setting": "[1]; [4]", "value": "suppressed the CPT1a level"},
      {"measurement": "level of β-catenin", "setting": "[1]; [4]", "value": "increased the expression level of β-catenin"},
      {"measurement": "renal fibrogenic phenotype", "setting": "[1]; [4]", "value": "accelerated the renal fibrogenic phenotype"},
      {"measurement": "CPT1a level", "setting": "[1]; [5]", "value": "suppressed the CPT1a level"},
      {"measurement": "level of β-catenin", "setting": "[1]; [5]", "value": "increased the expression level of β-catenin"},
      {"measurement": "renal fibrogenic phenotype", "setting": "[1]; [5]", "value": "accelerated the renal fibrogenic phenotype"},
      {"measurement": "level of renal fibrosis", "setting": "[1]", "value": "slightly increased the level of renal fibrosis"}
    ]},
    {"smiles": "C=C1C(=O)OC(CCCCCCCC)C1C(=O)O", "note": "(stereo not shown) [C75]", "values": [
      {"measurement": "CPT1a level", "setting": "diabetic CD-1 mice", "value": "increased the expression of CPT1a"},
      {"measurement": "FAO, as measured by [14CO2] release", "setting": "diabetic CD-1 mice", "value": "increased the level of FAO"},
      {"measurement": "β-catenin level", "setting": "diabetic CD-1 mice", "value": "suppressed the level of β-catenin"},
      {"measurement": "fibrogenic phenotype / level of fibrosis", "setting": "diabetic CD-1 mice", "value": "ameliorated the fibrogenic phenotype"},
      {"measurement": "level of GR protein in CD31 positive cells", "setting": "diabetic CD-1 mice", "value": "restored"},
      {"measurement": "fibronectin mRNA level", "setting": "diabetic CD-1 mice", "value": "downregulated"},
      {"measurement": "αSMA mRNA level", "setting": "diabetic CD-1 mice", "value": "downregulated"},
      {"measurement": "expression of CPT1a (immunohistochemical analysis, FIG. 6E)", "setting": "[1]; diabetic GR^ECKO mice", "value": "A similar pattern was observed"},
      {"measurement": "expression of β-catenin (immunohistochemical analysis, FIG. 6E)", "setting": "[1]; diabetic GR^ECKO mice", "value": "A similar pattern was observed"},
      {"measurement": "expression of CPT1a (immunohistochemical analysis, FIG. 6E)", "setting": "[1]; diabetic control mice", "value": "substantially reverse"},
      {"measurement": "expression of β-catenin (immunohistochemical analysis, FIG. 6E)", "setting": "[1]; diabetic control mice", "value": "substantially reverse"},
      {"measurement": "FAO", "setting": "[1]; [2]", "value": "unable to rescue"},
      {"measurement": "FAO", "setting": "[1]; [3]", "value": "restored FAO"},
      {"measurement": "CPT1a level", "setting": "[1]; [4]", "value": "also observed in the GR^ECKO mice, though to a lesser extent"},
      {"measurement": "level of β-catenin", "setting": "[1]; [4]", "value": "also observed in the GR^ECKO mice, though to a lesser extent"},
      {"measurement": "renal fibrogenic phenotype", "setting": "[1]; [4]", "value": "also observed in the GR^ECKO mice, though to a lesser extent"},
      {"measurement": "CPT1a level", "setting": "[1]; [5]", "value": "restored CPT1a"},
      {"measurement": "level of β-catenin", "setting": "[1]; [5]", "value": "completely diminished the level of β-catenin"},
      {"measurement": "renal fibrogenic phenotype", "setting": "[1]; [5]", "value": "clearly abolished the renal fibrogenic phenotype"},
      {"measurement": "level of renal fibrosis", "setting": "[1]", "value": "mitigated"}
    ]}
  ]
}
